Where “and” joins values, the source holds several entries; their conditions need not be identical. Identical values can stand only once. Like-named read-outs stand apart in the source and are kept apart here.
Legend:
[1] = tested on: C. perfringens neuraminidase; assay type: biochemical, Clostridium perfringens; details: for IC50: read-out: IC50 Value C. perfringen Neuraminidase
SARS-CoV-2 main protease [2] = biological target: T1, SARS-CoV-2 main protease (Severe acute respiratory syndrome coronavirus 2, UniProt P0DTD1); test: biochemical; assay type: biochemical; details: for IC50: IC50 Value SARS-CoV-2 Main Protease
[3] = tested on: SARS-CoV-2 spike protein–human ACE2 interaction; assay type: binding, SARS-CoV-2 / human
SARS-CoV-2 main protease [4] = biological target: T1, SARS-CoV-2 main protease; details: read-out: IC50 Value SARS-CoV-2 Main Protease; cited from earlier work

SMILES: CCCCCc1cc(O)c2c(c1)OC(C)(CCC=C(C)C)C=C2 (centres unmarked) [CBC, cannabichromene]
- Potency Index*, bacterial neuraminidase, compared to std influenza A [1]: 56.89
- Potency Index, bacterial (C. perfringens) neuraminidase [1]: 5.18
- IC50 [1]: 56.9 µM
- Potency Index, SARS-CoV-2 main protease (SARS-CoV-2 main protease [2]): 100
- inhibition at 100 µg/mL (SARS-CoV-2 main protease [2]): 75%
- % Inhibition SARS-CoV-2 Spike Protein–Human ACE2 Interaction [3]: 95.25 (± 4.54) %
- Potency Index, SARS-CoV-2 spike protein [3]: 4.99
- Ratio, SARS-CoV2 spike protein [3]: 1.05

SMILES: C=C(C)[C@@H]1CCC(C)=C[C@H]1c1c(O)cc(CCCCC)cc1O [CBD, cannabidiol, reference compound]
- Potency Index*, bacterial neuraminidase, compared to std influenza A [1]: 4.53
- Potency Index, bacterial (C. perfringens) neuraminidase [1]: 0.41
- IC50 [1]: 4.5 µM and 4.53 µM
- Potency Index, SARS-CoV-2 main protease (SARS-CoV-2 main protease [2]): 4.43
- Potency Index, SARS-CoV-2 spike protein [3]: 77.62
- Ratio, SARS-CoV2 spike protein [3]: 1.78
- IC50 (SARS-CoV-2 main protease [4]): 1.86 µM

SMILES: C=C(C)C1CCC(C)(O)C2Oc3cc(CCCCC)cc(O)c3C12 (centres unmarked) [CBE, cannabielsoin]
- Potency Index, SARS-CoV-2 main protease (SARS-CoV-2 main protease [2]): 100
- inhibition at 100 µg/mL (SARS-CoV-2 main protease [2]): 80.3%
- Potency Index, SARS-CoV-2 spike protein [3]: 35.75
- Ratio, SARS-CoV2 spike protein [3]: 1.36

SMILES: CCCCCc1cc(O)c2c(c1)oc1c(C)ccc(C(C)C)c12 [CBF, cannabifuran]
- Potency Index, SARS-CoV-2 main protease (SARS-CoV-2 main protease [2]): 100
- inhibition at 100 µg/mL (SARS-CoV-2 main protease [2]): 65.3%
- % Inhibition SARS-CoV-2 Spike Protein–Human ACE2 Interaction [3]: 99.22 (± 1.36) %
- Ratio, SARS-CoV2 spike protein [3]: 1.01

SMILES: CCCCCc1cc(O)c(C/C=C(\C)CCC=C(C)C)c(O)c1 [CBG, cannabigerol]
- Potency Index*, bacterial neuraminidase, compared to std influenza A [1]: 6.92
- Potency Index, bacterial (C. perfringens) neuraminidase [1]: 0.63
- IC50 [1]: 6.9 µM and 6.92 µM
- inhibition at 100 µg/mL (SARS-CoV-2 main protease [2]): > 80%
- IC50 (SARS-CoV-2 main protease [2]): 5.68 µM
- % Inhibition SARS-CoV-2 Spike Protein–Human ACE2 Interaction [3]: 97.60 (± 4.16) %
- Potency Index, SARS-CoV-2 spike protein [3]: 2.46
- Ratio, SARS-CoV2 spike protein [3]: 1.02

SMILES: CCCCCc1cc(O)c2c(c1)OC1(C)CCC3C1C2C3(C)C (centres unmarked) [CBL, cannabicyclol]
- Potency Index*, bacterial neuraminidase, compared to std influenza A [1]: 96.12
- Potency Index, bacterial (C. perfringens) neuraminidase [1]: 8.75
- IC50 [1]: 96.1 µM
- inhibition at 100 µg/mL (SARS-CoV-2 main protease [2]): > 80%
- IC50 (SARS-CoV-2 main protease [2]): 5.67 µM
- Potency Index, SARS-CoV-2 spike protein [3]: 54.53
- Ratio, SARS-CoV2 spike protein [3]: 1.55

SMILES: CCCCCc1cc(O)c2c(c1)OC(C)(C)c1ccc(C)cc1-2 [CBN, cannabinol]
- % Inhibition C. perfringen Neuraminidase [1]: 34.87 (± 3.08) %
- Potency Index*, bacterial neuraminidase, compared to std influenza A [1]: 100.00
- Potency Index, bacterial (C. perfringens) neuraminidase [1]: 100
- Potency Index, SARS-CoV-2 main protease (SARS-CoV-2 main protease [2]): 100
- Potency Index, SARS-CoV-2 spike protein [3]: 39.18
- Ratio, SARS-CoV2 spike protein [3]: 1.39

SMILES: CCCCCc1cc(O)c2c(c1)OC(C)(C)[C@@H]1CCC(C)=C[C@@H]21 [THC, tetrahydrocannabinol, reference compound]
- Potency Index*, bacterial neuraminidase, compared to std influenza A [1]: 20.30
- Potency Index, bacterial (C. perfringens) neuraminidase [1]: 1.85
- IC50 [1]: ~20.3 µM and 20.3 µM
- Potency Index, SARS-CoV-2 main protease (SARS-CoV-2 main protease [2]): 38.64
- Potency Index, SARS-CoV-2 spike protein [3]: 72.94
- Ratio, SARS-CoV2 spike protein [3]: 1.73
- IC50 (SARS-CoV-2 main protease [4]): 16.2 µM

SMILES: COc1cc(O)c2c(c1)O[C@H](c1ccccc1)CC2=O [pinostrobin, reference compound]
- % Inhibition SARS-CoV-2 Spike Protein–Human ACE2 Interaction [3]: 100%

SMILES: O=c1c(O)c(-c2ccc(O)c(O)c2)oc2cc(O)cc(O)c12 [quercetin, reference compound]
- IC50 [1]: ~11 µM and 11 µM

Source: paper PMC11941704 (Current Issues in Molecular Biology, 2025)
